{"source": "patent US7090995B2", "about": "“Molecules and methods using same for measuring non-transferrin bound iron” (Yissum Research Development Company of the Hebrew …, priority 2000, dated 2006)", "key": {"[1]": {"experiment": "Iron binding (quenching of fluorescence) by fluorescein-transferrin preparations with and without oxalate and gallium", "conditions": "0.6 μM indicator, 10 mM oxalate and gallium, FIGS. 8A-B", "experimental": "FIGS. 8A–B graphically depict the ability of two particular preparations of iron-free-transferrin, essentially Fl-TF (FIG. 8A) and Fl-aTF (FIG. 8B), to detect free iron in the presence and absence of oxalate and Gallium [Ga(III)]. 0.6 μM of each of the indicator molecules were tested under three experimental conditions: with no addition (squares), with 10 mM Na-oxalate (circles) and with 10 mM Na-oxalate and 0.1 mM GaCl3 (triangles), Quenching of fluorescence as a function of iron concentration was measured and presented as % Original Fluorescence.\nPreparation of fluorescein-conjugated apo-Transferrin (Fl-aTF) and iron depleted Transferrin (FL-TF)—100 μM 5-(4,6-dichlorotriazinyl) aminofluorescein (DCTAF, Molecular Probes, Eugene, Oreg.) from a freshly prepared 10 mM solution in dimethylsulfoxide was added to a solution containing 8 mg/ml apo-Transferrin (Kamada, Kibbutz Kama, Israel) (100 μM, based on a, MW of 80 kD) in 100 mM NaHCO3, pH 8.4. Following a 30 minute incubation at 37° C. in the dark, 5 mM L-lysine was added from a solution containing 0.5 M L-lysine, pH 8, in order to terminate the coupling reaction. The product Fl-aTF was extensively dialyzed against HBS, divided into aliquots and stored frozen at −20° C. The final preparation yielded a single fluorescent band of approximately 80 kD in polyacrylamide electrophoresis determinations. The fluoroscein concentration in Fl-aTF was determined to be 84 μM by measuring absorbance at 496 nm, using DCTAF as standard solution, giving a ratio of aTf: fluoroscein of 1:0.84.\nFL-TF was prepared in an identical manner as FL-aTF, with the difference that iron-saturated human transferrin (from Kamada, Kibbutz Kama, Israel) was used instead of iron-free transferrin for reaction with DCTAF. The FL-TF was rendered iron-free by exhaustive dialysis against 37.5 mM Na-Citrate, pH 5.0, and then the citrate was removed from the preparation by exhaustive dialysis against HBS. […]"}, "[2]": {"experiment": "DCI in serum/plasma of Thalassemia patients undergoing oral L1-chelation therapy", "assay_type": "in vivo, human", "conditions": "Thalassemia patients (Thailand, Israel), therapeutic oral doses of L1, minutes to hours after administration; FIGS. 6A-B", "source_text": "FIG. 5 is a schematic illustration of another embodiment of the method of the present invention directed at detecting iron mobilized from tissues into plasma by chelators such as L1 (also called deferriprone). In the example depicted, a serum sample was taken from a patient following L1 oral administration. The iron mobilized in vivo into the plasma by L1 is transferred to Fl-DFO in vitro, whereupon Fl-DFO's fluorescence is quenched commensurately with the amount of iron transferred. The basic assay is as depicted in FIG. 2. FIGS. 6A–B are graphs depicting the DCI levels in plasma of thalassemic patients (3 from Israel and 3 from Thailand, FIGS. 6B and A, respectively) treated with therapeutic doses of L1 (per os). Sampled were retrieved minutes to hours following L1 administration. […] When assessed under actual clinical conditions, with serum samples from Thalassemia patients (each patient is represented by a line in the graph) undergoing L1-chelation therapy in Thailand (FIG. 6A) and Israel (FIG. 6B), the methods of the present invention accurately reflected the L1-bound iron in the patient's plasma. DCI was detected in the samples assayed as described hereinabove (Example 2), and DCI values determined from the standard calibration curve (FIG. 4). […]"}}, "data": [{"compound": "5-4,6-dichlorotriazinyl aminofluorescein (DCTF)-apo-transferrin [Fl-aTF]", "values": [{"measurement": "quenching of fluorescence by iron in the presence of gallium", "setting": "[1]; listed as FL-aTF", "result": "strongly quenched by low concentrations of iron in the presence of gallium"}, {"measurement": "quenching of fluorescence by iron in the presence of gallium", "setting": "[1]; listed as Fl-aTf", "result": "not affected by Gallium"}]}, {"compound": "Fl-TF: fluorescein attached to iron-saturated human transferrin, then rendered iron-free; similar to conventional fluoresceinated Transferrin", "values": [{"measurement": "quenching of fluorescence by iron in the presence of gallium", "setting": "[1]", "result": "inhibition of Fl-TF fluorescence quenching by gallium was clearly observed"}]}, {"compound": "Cc1c(O)c(=O)ccn1C", "note": "[L1]", "values": [{"measurement": "DCI in patient plasma after L1 administration", "setting": "[2]", "result": "increases in DCI"}]}]}
